According to article PMC10544575, “Inhibitory mechanism of vortioxetine on CYP450 enzymes in human and rat liver microsomes” (Frontiers in Pharmacology, 2023):
Like-named read-outs stand apart in the source and are kept apart here.

Legend:
Assay type in all cases: in vitro ADME
CYP2C9 [1] = target: T1, CYP2C9 (Homo sapiens, UniProt P11712); test: Reversible inhibition kinetics (Lineweaver-Burk), CYP2C9 in HLMs; parameters: 0.20 mg/mL HLMs; from tissue; host or cells: human liver microsomes; settings: losartan
Procedure: (§1) The components of the incubation system were as follows: 0.20 mg/mL HLMs or 0.20 mg/mL RLMs, 0.1 M Tris-HCl, vortioxetine, and the probe substrates of each enzyme. In the study of Km’s (Michaelis–Menten constant) experiment, midazolam (1, 2, 5, 10, 20, 50 and 100 μM in HLMs and RLMs) corresponded to CYP3A4/3A; bupropion (10, 20, 50, 100, 200, 500, 1,000 and 2000 μM in HLMs; 1, 2, 5, 10, 20, 50, 100 and 200 μM in RLMs) corresponded to CYP2B6/2B; amodiaquine (5, 10, 20, 50, 100 and 200 μM in HLMs; 10, 20, 50, 100, 200, 500 μM in RLMs) corresponded to CYP2C8/CYP2C-1; losartan (1, 2, 5, 10, 20, 50, 100, 200 μM in HLMs; 10, 20, 50, 100, 200, 500 and 1,000 μM in RLMs) corresponded to CYP2C9/CYP2C-2; mephenytoin (20, 50, 100, 200, 500 and 1,000 μM in HLMs; 5, 10, 20, 50, 100, 200, 500 and 1,000 μM in RLMs) corresponded to CYP2C19/CYP2C-3; and dextromethorphan (1, 2, 5, 10, 20, 50 and 100 μM in HLMs and RLMs) corresponded to CYP2D6/CYP2D. After 5.0 min of preincubation in the shaking water bath, the reaction was started with the addition of 1.0 mM NADPH. The incubated temperature at 37°C for 30 min. After the incubation, the enzyme reaction was stopped by cooling at −80°C, and 200 μL of acetonitrile and 20 μL of internal standard diazepam (200 ng/mL) were added for protein precipitation. The solution was fully vortexed and centrifuged at 13,000 × rpm for 10 min, and the supernatant was collected for data analysis by UPLC-MS/MS.
The inhibitory mechanism of the inhibitor on the enzyme was generally used by different concentrations of the inhibitor against different concentrations of the probe substrate. The concentrations of the inhibitor and the concentrations of probe substrates in the experiment were estimated based on IC50 and Km values, respectively.
In HLMs, the concentrations of the substrates midazolam, bupropion, amodiaquine, losartan, mephenytoin, and dextromethorphan were 1, 2, 4, 8 μM; 10, 20, 40, 80 μM; 0.8, 1.5, 3, 6 μM; 2, 4, 8, 16 μM; 20, 45, 90, 180 μM; 2.5, 5, 10, 20 μM, respectively. Corresponding to the concentration of vortioxetine were 2, 4, 9, 18 μM; 2, 4, 8, 16 μM; 4, 8, 15, 30 μM; 5, 10, 25, 50 μM; 0.6, 1.2, 2.5, 5 μM; 4.5, 9, 18, 36 μM, respectively.
All experiments results were detected by UPLC-MS/MS, which equipped with a Waters Acquity UPLC system (Milford, MA, United States) and a Waters Xevo TQ-S triple quadrupole tandem mass spectrometer with an electrospray ionization source (Milford, MA, United States). The chromatographic separation was performed on a Waters ACQUITY UPLC BEH C18 column (2.1 × 50 mm, 1.7 μm, Waters Corp.) at 40°C. […]
(§2) IC50 values and enzyme kinetic parameters were calculated by Graphpad Prism 6.0 (GraphPad software Inc., CA, United States). […] Data for each experiment were expressed as mean ± SD (n = 3).

CYP2C-3 = test: IC50 of vortioxetine on CYP2C-3 (mephenytoin) in RLMs; settings: rat, rat liver microsomes, probe mephenytoin
Procedure: as §1, with “After 5.0 min of preincubation in the shaking water bath, the reaction was started with the addition of 1.0 mM NADPH. The incubated temperature at 37°C for 30 min. After the incubation, the enzyme reaction was stopped by cooling at −80°C, and 200 μL of acetonitrile and 20 μL of internal standard diazepam (200 ng/mL) were added for protein precipitation. The solution was fully vortexed and centrifuged at 13,000 × rpm for 10 min, and the supernatant was collected for data analysis by UPLC-MS/MS.” left out
(§3) All experiments results were detected by UPLC-MS/MS, which equipped with a Waters Acquity UPLC system (Milford, MA, United States) and a Waters Xevo TQ-S triple quadrupole tandem mass spectrometer with an electrospray ionization source (Milford, MA, United States). […]
as §2

CYP2C9 [2] = target: T1, CYP2C9; test: IC50 of vortioxetine on CYP2C9 (losartan) in HLMs; parameters: 0.20 mg/mL HLMs; from tissue; host or cells: human liver microsomes
Procedure: as §1, with “After 5.0 min of preincubation in the shaking water bath, the reaction was started with the addition of 1.0 mM NADPH. The incubated temperature at 37°C for 30 min. After the incubation, the enzyme reaction was stopped by cooling at −80°C, and 200 μL of acetonitrile and 20 μL of internal standard diazepam (200 ng/mL) were added for protein precipitation. The solution was fully vortexed and centrifuged at 13,000 × rpm for 10 min, and the supernatant was collected for data analysis by UPLC-MS/MS.” left out
as §3, §2

CYP2C8 = target: T2, CYP2C8 (Homo sapiens, UniProt P10632); test: IC50 of vortioxetine on CYP2C8 (amodiaquine) in HLMs; parameters: 0.20 mg/mL HLMs; from tissue; host or cells: human liver microsomes
T2 sequence (P10632 1-490): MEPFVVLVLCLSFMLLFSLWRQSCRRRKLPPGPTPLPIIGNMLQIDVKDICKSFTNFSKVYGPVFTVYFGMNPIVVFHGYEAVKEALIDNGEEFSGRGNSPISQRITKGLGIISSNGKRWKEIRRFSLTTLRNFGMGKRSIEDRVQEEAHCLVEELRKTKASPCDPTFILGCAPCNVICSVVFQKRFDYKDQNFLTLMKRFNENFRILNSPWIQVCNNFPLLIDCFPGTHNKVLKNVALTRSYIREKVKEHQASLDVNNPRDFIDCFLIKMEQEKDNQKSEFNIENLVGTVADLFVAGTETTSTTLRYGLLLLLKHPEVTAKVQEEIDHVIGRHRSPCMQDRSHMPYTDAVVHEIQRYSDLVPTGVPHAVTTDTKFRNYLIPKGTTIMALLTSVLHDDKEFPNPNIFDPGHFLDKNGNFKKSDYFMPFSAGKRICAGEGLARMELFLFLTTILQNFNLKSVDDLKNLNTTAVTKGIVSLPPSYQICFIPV
Procedure: as §1, with “After 5.0 min of preincubation in the shaking water bath, the reaction was started with the addition of 1.0 mM NADPH. The incubated temperature at 37°C for 30 min. After the incubation, the enzyme reaction was stopped by cooling at −80°C, and 200 μL of acetonitrile and 20 μL of internal standard diazepam (200 ng/mL) were added for protein precipitation. The solution was fully vortexed and centrifuged at 13,000 × rpm for 10 min, and the supernatant was collected for data analysis by UPLC-MS/MS.” left out
as §3, §2

[3] = inhibitory effect (strength judged by IC50), HLMs

T1 sequence (P11712 whole entry): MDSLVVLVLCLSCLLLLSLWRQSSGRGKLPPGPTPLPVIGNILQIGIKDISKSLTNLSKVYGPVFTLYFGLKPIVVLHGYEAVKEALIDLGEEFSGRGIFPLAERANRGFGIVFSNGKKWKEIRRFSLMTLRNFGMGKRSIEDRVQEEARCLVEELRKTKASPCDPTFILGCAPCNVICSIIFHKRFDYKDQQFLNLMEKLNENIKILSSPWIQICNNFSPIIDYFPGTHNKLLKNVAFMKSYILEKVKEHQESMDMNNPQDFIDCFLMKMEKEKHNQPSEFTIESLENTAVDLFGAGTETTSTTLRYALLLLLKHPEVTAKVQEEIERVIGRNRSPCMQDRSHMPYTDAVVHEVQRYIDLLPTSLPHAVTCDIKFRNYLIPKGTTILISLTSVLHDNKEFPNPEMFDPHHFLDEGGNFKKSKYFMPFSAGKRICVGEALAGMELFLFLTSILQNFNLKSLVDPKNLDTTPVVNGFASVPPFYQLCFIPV

## Cc1ccc(Sc2ccccc2N2CCNCC2)c(C)c1 [vortioxetine]
CYP2C9 [1]
  Ki: 4.17 µM
  α: 15.94
CYP2C9 [1]; Lineweaver-Burk plot
  Inhibition type: mixed inhibition
CYP2C9 [1]; secondary plot of y-intercepts
  αKi: 66.5 µM
CYP2C-3; RLMs 0.20 mg/mL, mephenytoin at Km, 37°C, 30 min, read-out: IC50
  IC50 at 30 min: 20.3 µM
CYP2C-3; inhibitory effect (strength judged by IC50), RLMs
  IC50 at 30 min: > 10 µM
CYP2C9 [2]; HLMs 0.20 mg/mL, losartan at Km, 37°C, 30 min, read-out: IC50
  IC50: 23 µM
CYP2C9 [2]; [3]
  IC50: > 10 µM
CYP2C8; HLMs 0.20 mg/mL, amodiaquine at Km, 37°C, 30 min, read-out: IC50
  IC50: 15 µM
CYP2C8; [3]
  IC50: > 10 µM
